Results as given in patent US20240252650A1, “LIPID COMPOUNDS AND LIPID NANOPARTICLE COMPOSITIONS” (SUZHOU ABOGEN BIOSCIENCES CO., LTD., priority 2021, published 2024).

What was measured:
Format in all cases: physicochemical
[1] = Apparent pKa of LNP formulations by TNS fluorescence assay; details: LNP cationic lipid/DSPC/cholesterol/DMG-PEG 50/10/38.5/1.5 mol %, table of Example 16
Protocol: As reported in literature, the apparent pKa of LNP formulations correlates with the delivery efficiency of LNPs for nucleic acids in vivo. The apparent pKa of each formulation was determined using an assay based on fluorescence of 2-(p-toluidino)-6-napthalene sulfonic acid (TNS). LNP formulations comprising of cationic lipid/DSPC/cholesterol/DMG-PEG (50/10/38.5/1.5 mol %) in PBS were prepared as described above. TNS was prepared as a 300 uM stock solution in distilled water. LNP formulations were diluted to 0.1 mg/ml total lipid in 3 mL of buffered solutions containing 50 mM sodium citrate, 50 mM sodium phosphate, 50 mM sodium borate, and 30 mM sodium chloride where the pH ranged from 3 to 9. An aliquot of the TNS solution was added to give a final concentration of 0.1 mg/ml and following vortex mixing fluorescence intensity was measured at room temperature in a Molecular Devices Spectramax iD3 spectrometer using excitation and mission wavelengths of 325 nm and 435 nm. A sigmoidal best fit analysis was applied to the fluorescence data and the pKa value was measured as the pH giving rise to half-maximal fluorescent intensity.

[2] = Lipid nanoparticle size and polydispersity by dynamic light scattering (Malvern Zetasizer Nano ZS); details: LNP encapsulating hEPO mRNA; table of Example 16
Protocol: (§1) Briefly, a cationic lipid provided herein, DSPC, cholesterol, and PEG-lipid were solubilized in ethanol at a molar ratio of 50:10:38.5:1.5, and mRNA were diluted in 10 to 50 mM citrate buffer, pH=4. The LNPs were prepared at a total lipid to mRNA weight ratio of approximately 10:1 to 30:1 by mixing the ethanolic lipid solution with the aqueous mRNA solution at a volume ratio of 1:3 using a microfluidic apparatus, total flow rate ranging from 9-30 mL/min. Ethanol were thereby removed and replaced by DPBS using dialysis. Finally, the lipid nanoparticles were filtered through a 0.2 μm sterile filter.
(§2) Lipid nanoparticle size were determined by dynamic light scattering using a Malvern Zetasizer Nano ZS (Malvern UK) using a 173° backscatter detection mode. The encapsulation efficiency of lipid nanoparticles were determined using a Quant-it Ribogreen RNA quantification assay kit (Thermo Fisher Scientific, UK) according to the manufacturer's instructions.

[3] = Encapsulation efficiency of lipid nanoparticles (Quant-it Ribogreen RNA quantification assay); details: LNP encapsulating hEPO mRNA; table of Example 16
Protocol: as §1, §2

Structure (SMILES)	Apparant Pka [1]	polydispersity [2]	size (nm) [2]	Encapsulation Efficiency [3]
CCCCCCCCCCC(=O)OCC(COC(=O)CCCCN(CCO)C1CCC1)COC(=O)CCCC(COC(=O)CCCCCCC)COC(=O)CCCCCCC (centres unmarked) [Compound 48]	7.229	0.087	108.4 nm	93.21%
CCCCCCCCCCCCCCCCCC(=O)OCC(COC(=O)CCCCCN(CCO)C1CCC1)COC(=O)CCCC(COC(=O)CCCCC)COC(=O)CCCCCCC (centres unmarked) [Compound 61]	7.019			
CCCCC/C=C\C/C=C\CCCCCCCC(=O)OCC(COC(=O)CCCC(COC(=O)CCCCCCC)COC(=O)CCCCCCC)COC(=O)OCCN(CCO)C1CCCCC1 (centres unmarked) [Compound 8]		0.049	63.20 nm	85.90%
CCCCC/C=C\C/C=C\CCCCCCCC(=O)OCC(COC(=O)CCCCCCCN(CCO)C1CCC1)COC(=O)CCCC(COC(=O)CCCCCCC)COC(=O)CCCCCCC (centres unmarked) [Compound 43]	6.766	0.04	95.19 nm	93.46%
CCCCCCCCCCCCC(=O)OCC(COC(=O)CCCCCN(CCO)C1CCC1)COC(=O)CCCC(COC(=O)CCCCCCC)COC(=O)CCCCCCC (centres unmarked) [Compound 63]	6.999			
CCCCCCCCC(=O)OCC(COC(=O)CCCCCN(CCO)C1CCC1)COC(=O)CCCC(COC(=O)CCCCCCC)COC(=O)CCCCCCC (centres unmarked) [Compound 45]	6.965	0.067	144.2 nm	90.08%
CCCCC/C=C\C/C=C\CCCCCCCC(=O)OCC(COC(=O)CCCC(COC(=O)CCCCCCC)COC(=O)CCCCCCC)COC(=O)OCCN(CCO)C1CCC1 (centres unmarked) [Compound 12]		0.096	53.68 nm	81.79%
CCCCCCCCCCCC(=O)OCC(COC(=O)CCCC(COC(=O)CCCCCCC)COC(=O)CCCCCCC)COC(=O)CCN(CCO)C1CCC1 (centres unmarked) [Compound 15]		0.043	90.47 nm	93.04%
CCCCC/C=C\C/C=C\CCCCCCCC(=O)OCC(COC(=O)CCCC(COC(=O)CCCCCCC)COC(=O)CCCCCCC)COC(=O)OCCCN(CCO)C1CCC1 (centres unmarked) [Compound 34]	6.307	0.049	82.63 nm	89.00%
CCCCC/C=C\C/C=C\CCCCCCCC(=O)OCC(COC(=O)CCCC(COC(=O)CCCCCCC)COC(=O)CCCCCCC)COC(=O)OCCN(CCO)C1CCCC1 (centres unmarked) [Compound 33]		0.053	71.21 nm	83.76%
CCCCC/C=C\C/C=C\CCCCCCCC(=O)OCC(COC(=O)CCCC(COC(=O)CCCCCCC)COC(=O)CCCCCCC)COC(=O)CCN(CCO)C1CCC1 (centres unmarked) [Compound 1]	5.56	0.047	77.60 nm	89.48%
CCCCCCCCCC(=O)OCC(COC(=O)CCCCN(CCO)C1CCC1)COC(=O)CCCC(COC(=O)CCCCCCC)COC(=O)CCCCCCC (centres unmarked) [Compound 47]	7.217			
CCCCCCCCCCCCC(=O)OCC(COC(=O)CCCCN(CCO)C1CCC1)COC(=O)CCCC(COC(=O)CCCCCCC)COC(=O)CCCCCCC (centres unmarked) [Compound 18]	6.915	0.031	84.24 nm	78.25%
CCCCCCCCC(=O)OCC(COC(=O)CCCCCCN(CCO)C1CCC1)COC(=O)CCCC(COC(=O)CCCCCCC)COC(=O)CCCCCCC (centres unmarked) [Compound 57]	7.016	0.079	117 nm	84.36%
CCCCCCCCCCC(=O)OCC(COC(=O)CCCCCCN(CCO)C1CCC1)COC(=O)CCCC(COC(=O)CCCCCCC)COC(=O)CCCCCCC (centres unmarked) [Compound 50]	7.175	0.158	89.62 nm	91.68%
CCCCCCCCCCCCC(=O)OCC(COC(=O)CCCCCCN(CCO)C1CCC1)COC(=O)CCCC(COC(=O)CCCCCCC)COC(=O)CCCCCCC (centres unmarked) [Compound 64]	6.837	0.196	105.4 nm	87.35%
CCCCCCCCC(=O)OCC(COC(=O)CCCCCCCN(CCO)C1CCC1)COC(=O)CCCC(COC(=O)CCCCCCC)COC(=O)CCCCCCC (centres unmarked) [Compound 46]	7.088	0.069	158.9 nm	89.87%
CCCCCCCCCCCC(=O)OCC(COC(=O)CCCCCCCN(CCO)C1CCC1)COC(=O)CCCC(COC(=O)CCCCCCC)COC(=O)CCCCCCC (centres unmarked) [Compound 52]	7.041			
CCCCCCCCCCCC(=O)OCC(COC(=O)CCCCCN(CCO)C1CCC1)COC(=O)CCCC(COC(=O)CCCCCCC)COC(=O)CCCCCCC (centres unmarked) [Compound 51]	7.288			
CCCCCCCC(=O)OCC(CCCC(=O)OCC(COC(=O)CCCCCCC)COC(=O)CCCCCCCN(CCO)C1CCC1)COC(=O)CCCCCCC (centres unmarked) [Compound 44]	6.812			
CCCCCCCCCCCCCCCC(=O)OCC(COC(=O)CCCCN(CCO)C1CCC1)COC(=O)CCCC(COC(=O)CCCCCCC)COC(=O)CCCCCCC (centres unmarked) [Compound 41]	6.895			

Continued, values first:

Apparant Pka [1]	polydispersity [2]	size (nm) [2]	Encapsulation Efficiency [3]	Structure (SMILES)
6.262	0.06244	80.11 nm	89.77%	CCCCC/C=C\C/C=C\CCCCCCCC(=O)OCC(COC(=O)CCCC(COC(=O)CCCCCCC)COC(=O)CCCCCCC)COC(=O)OCCCN(CCO)CCCC (centres unmarked) [Compound 105]
7.232				CCCCCCCCCCCCCCCCCC(=O)OCC(COC(=O)CCCCN(CCC)CCO)COC(=O)CCCC(COC(=O)CCCCCCC)COC(=O)CCCCCCC (centres unmarked) [Compound 83]
6.535	0.02588	67.27 nm	91.54%	CCCCCCCCC(CCCCCCCC)COC(=O)CCOCC(COCCC(=O)OCC(CCCCCCCC)CCCCCCCC)COC(=O)CCCCN(CCO)C1CCC1 [Compound 100]
6.349				CCCCCCCCC(=O)OCC(COC(=O)CCCC(COC(=O)CCCCCCC)COC(=O)CCCCCCC)COC(=O)OCCCN(CCO)C1CCC1 (centres unmarked) [Compound 67]
5.905				C=CCN(CCO)CCCOC(=O)OCC(COC(=O)CCCCCCC/C=C\C/C=C\CCCCC)COC(=O)CCCC(COC(=O)CCCCCCC)COC(=O)CCCCCCC (centres unmarked) [Compound 88]
6.441	0.04979	66.11 nm	89.61%	CCCCC/C=C\C/C=C\CCCCCCCC(=O)OCC(COC(=O)CCCC(COC(=O)CCCCCCC)COC(=O)CCCCCCC)OC(=O)CCCCN(CCO)C1CCCCC1 (centres unmarked) [Compound 107]
6.192				C/C=C/CN(CCO)CCCOC(=O)OCC(COC(=O)CCCCCCC/C=C\C/C=C\CCCCC)COC(=O)CCCC(COC(=O)CCCCCCC)COC(=O)CCCCCCC (centres unmarked) [Compound 94]
5.811	0.023	72.66 nm	86.02%	CCCCCCCC(=O)OCC(CCCC(=O)OCC(COC(=O)CCCC(COC(=O)CCCCCCC)COC(=O)CCCCCCC)COC(=O)OCCN(C)CCO)COC(=O)CCCCCCC [Compound 91]
6.887				CCCCCCCCCC(=O)OCC(COC(=O)CCCCCCN(CCO)C1CCC1)COC(=O)CCCC(COC(=O)CCCCCCC)COC(=O)CCCCCCC (centres unmarked) [Compound 79]
6.111				CCCCCCCCCCCCCCCCCC(=O)OCC(COC(=O)CCCC(COC(=O)CCCCCCC)COC(=O)CCCCCCC)COC(=O)OCCCN(CCO)C1CCCCC1 (centres unmarked) [Compound 65]
6.547				CCCCCCCCCCCCCCCCCC(=O)OCC(COC(=O)CCCCN(CCO)C1CCCCCC1)COC(=O)CCCC(COC(=O)CCCCCCC)COC(=O)CCCCCCC (centres unmarked) [Compound 75]
6.858				CCCCCCCCCC(=O)OCC(COC(=O)CCCCCCCN(CCO)C1CCC1)COC(=O)CCCC(COC(=O)CCCCCCC)COC(=O)CCCCCCC (centres unmarked) [Compound 80]
6.384	0.034	99.16 nm	93.62%	CCCCC/C=C\C/C=C\CCCCCCCC(=O)OCC(COC(=O)CCCC(COC(=O)CCCCCCC)COC(=O)CCCCCCC)COC(=O)OCCCN(CCC)CCO (centres unmarked) [Compound 87]
7.076				CCCCCCCCCCCCCCCCCC(=O)OCC(COC(=O)CCCCN(CCO)C1CCC1)COC(=O)CCCC(COC(=O)CCCCCCC)COC(=O)CCCCCCC (centres unmarked) [Compound 72]
6.006				CCCCCCCCCCCCCCCCCC(=O)OCC(COC(=O)CCCCN(CCO)CC(C)C)COC(=O)CCCC(COC(=O)CCCCCCC)COC(=O)CCCCCCC (centres unmarked) [Compound 97]
